For series [1], the system named is metastatic melanoma. Further details: method as in PMID 31562797. Particulars: patients with metastatic melanoma; ref [13]; cited from earlier work.
Series [2] is described as follows: In vivo biodistribution of [^203Pb]VMT01 in B16-F10 melanoma xenograft model. The arrangement: species or system athymic nude mice. Conditions: athymic nude, mouse, intravenous, 74 KBq, total radioactivity, tail vein; for tissue uptake at 0.5 h: 0.5 h post-injection; for tissue uptake at 1.5 h: 1.5 h post-injection; for tissue uptake at 3 h: 3 h post-injection; for tissue uptake at 6 h: 6 h post-injection; for tissue uptake at 24 h: 24 h post-injection. Here is the method:
Radiolabeling of VMT01 was carried out according to published methods. Briefly, ^203Pb^2+ was purified on 50 mg Pb-resin (Eichrom Technologies, Lisle, IL, USA) and eluted into reaction vessel using 0.5 M sodium acetate (NaOAc) pH = 6 buffer. The reaction vessel contained 20 nmole VMT01 peptide precursor and 0.29 mL of 0.5 M sodium acetate (NaOAc) pH = 4 buffer to adjust final pH to 5.4. The reaction solution was heated under 85 °C for 30 min. After reactions, free ^203Pb was removed by StrataX C-18 SPE cartridge (Phenomenex, Torrance, CA, USA) and final products were collected in 50% EtOH in saline. Biodistribution of [^203Pb]VMT01 was determined in a B16-F10 murine melanoma xenograft model in athymic nude mice. B16-F10 xenograft was developed by the subcutaneous (SC) injection of 2 × 10^5 B16-F10 cells at the left shoulder in 100 µL 50% Matrigel in complete growth media. Then, 74 KBq of [^203Pb]VMT01 (5.4 pmole) were administered via tail vein injection (2 male and 2 female at each time point) in 100 µL of saline with less than 10% EtOH content. At 0.5, 1.5, 3, 6, and 24 h post-injection, animals were euthanized, and organs of interest were harvested and weighed. Radioactivity in tumor and organs was measured on a Cobra II automated gamma counter. […] The value for 48 h was extrapolated from the last 3 time points (3, 6, and 24 h) of the biodistribution by one phase exponential decay with least squares fitting method (GraphyPrism V7). The average kidney volume was assumed to be 0.33 cm^3 for C57BL6 mice. […] The voxel size of the model was adjusted to have the same kidney volume as the averaged value (0.33 cm^3). The elemental composition of the kidney and the mass density was assumed to be identical as the human adults’ values obtained from the International Commission on Radiation Units and measurements (ICRU) report 46 [52].

The mark [3] stands for this setting: both sexes, blood, read-out: Biodistribution, Blood, Average.
Setting [4] is: both sexes, brain, read-out: Biodistribution, Brain, Average.
Where [5] appears, read: both sexes, heart, read-out: Biodistribution, Heart, Average.
Setting [6] is: both sexes, kidney, read-out: Biodistribution, Kidneys, Average.
The mark [7] stands for this setting: both sexes, liver, read-out: Biodistribution, Liver, Average.
The mark [8] stands for this setting: both sexes, lungs, read-out: Biodistribution, Lungs, Average.
Setting [9] is: both sexes, muscle, read-out: Biodistribution, Muscle, Average.
Setting [10] is: both sexes, skin, read-out: Biodistribution, Skin, Average.
Where [11] appears, read: both sexes, spleen, read-out: Biodistribution, Spleen, Average.
The mark [12] stands for this setting: both sexes, tumor, read-out: Biodistribution, Tumor, Average.
Setting [13] is: male, testes, read-out: Biodistribution, Testes, Average.

These results are taken from PMC8345035, “Targeted Alpha-Particle Radiotherapy and Immune Checkpoint Inhibitors Induces Cooperative Inhibition on Tumor Growth of Malignant Melanoma” (Cancers, 2021).

Where two headings read alike, the source gives them in different places. Where a SMILES comes first, the peptide text is derived from it. Bridges are numbered along the chain shown (N, C = ends). Triazole bridges read from a SMILES are 1,4-linked. Side-chain parts run from the residue outwards. [ ]: non-standard residue; d: D form. The star is where a group is joined. X1 = NC(=O)CN1CCN(CC(=O)O)CCN(CC(=O)*)CCN(CC(=O)O)CC1; Lys(N3) = [N-]=[N+]=NCCCC[C@H](N)C(=O)O; Nle = CCCC[C@H](N)C(=O)O; Pra = C#CC[C@H](N)C(=O)O; AEEA = NCCOCCOCC(=O)O

Consider nivolumab: anti-PD1, for which the complete response rate in series [1] was 19%.
With `CCCC[C@H](NC(C)=O)C(=O)N[C@H]1Cc2cn(nn2)CCCC[C@@H](C(=O)N[C@@H](CCCCNC(=O)COCCOCCNC(=O)CN2CCN(CC(=O)O)CCN(CC(N)=O)CCN(CC(=O)O)CC2)C(N)=O)NC(=O)[C@H](Cc2c[nH]c3ccccc23)NC(=O)[C@H](CCCNC(=N)N)NC(=O)[C@@H](Cc2ccccc2)NC(=O)[C@H](Cc2c[nH]cn2)NC1=O` [[^203Pb]VMT01, metal not drawn] (Ac-[Nle][Pra]H[dF]RW[Lys(N3)]K([AEEA-X1])-NH2; triazole 2-7), the tissue uptake at 0.5 h came out at 1.1 %ID/g in series [2] (setting [3]); 0.06 %ID/g in series [2] (setting [4]); 0.66 %ID/g in series [2] (setting [5]); 12.8 %ID/g in series [2] (setting [6]); 0.64 %ID/g in series [2] (setting [7]); 2.8 %ID/g in series [2] (setting [8]). Also, the tissue uptake at 0.5 h in series [2] (setting [9]) amounted to 0.73 %ID/g; in series [2] (setting [10]), 2.23 %ID/g; in series [2] (setting [11]), 0.58 %ID/g; in series [2] (setting [12]), 5.5 %ID/g; in series [2] (setting [13]), 3.23 %ID/g. The tissue uptake at 1.5 h in series [2] (setting [3]) was 0.08 %ID/g; in series [2] (setting [4]), 0.02 %ID/g; in series [2] (setting [5]), 0.08 %ID/g; in series [2] (setting [6]) it was 6.1 %ID/g; in series [2] (setting [7]), 0.43 %ID/g; in series [2] (setting [8]), 2.98 %ID/g. Moreover, the tissue uptake at 1.5 h in series [2] (setting [9]) was determined as 0.09 %ID/g; in series [2] (setting [10]), 0.27 %ID/g; in series [2] (setting [11]) it was 0.17 %ID/g; in series [2] (setting [12]), 8.9 %ID/g; in series [2] (setting [13]) it was 0.1 %ID/g. For the same compound, the tissue uptake at 3 h stood at 0.03 %ID/g in series [2] (setting [3]); 0.01 %ID/g in series [2] (setting [4]); 0.05 %ID/g in series [2] (setting [5]); 6 %ID/g in series [2] (setting [6]); 0.31 %ID/g in series [2] (setting [7]); 1.34 %ID/g in series [2] (setting [8]). Also, the tissue uptake at 3 h in series [2] (setting [9]) came out at 0.04 %ID/g; in series [2] (setting [10]), 0.15 %ID/g; in series [2] (setting [11]), 0.12 %ID/g; in series [2] (setting [12]), 4.5 %ID/g; in series [2] (setting [13]), 0.04 %ID/g. Besides, the tissue uptake at 6 h worked out at 0.02 %ID/g in series [2] (setting [3]); 0.01 %ID/g in series [2] (setting [4]); 0.03 %ID/g in series [2] (setting [5]); 5.3 %ID/g in series [2] (setting [6]); 0.37 %ID/g in series [2] (setting [7]); 1 %ID/g in series [2] (setting [8]). In addition, the tissue uptake at 6 h in series [2] (setting [9]) worked out at 0.03 %ID/g; in series [2] (setting [10]) it was 0.17 %ID/g; in series [2] (setting [11]), 0.11 %ID/g; in series [2] (setting [12]) it was 3.8 %ID/g; in series [2] (setting [13]), 0.04 %ID/g. Besides, the tissue uptake at 24 h was determined as 0.01 %ID/g in series [2] (setting [3]); 0.01 %ID/g in series [2] (setting [4]); 0.02 %ID/g in series [2] (setting [5]); 2.6 %ID/g in series [2] (setting [6]); 0.22 %ID/g in series [2] (setting [7]); 0.2 %ID/g in series [2] (setting [8]). The tissue uptake at 24 h in series [2] (setting [9]) was 0.02 %ID/g; in series [2] (setting [10]) it was 0.09 %ID/g; in series [2] (setting [11]) it was 0.09 %ID/g; in series [2] (setting [12]), 1.7 %ID/g; in series [2] (setting [13]) it was 0.03 %ID/g.
Consider ipilimumab: anti-CTLA-4, for which, in series [1], the complete response rate was 6%.
